One experiment deals with SW620 Yap KO cells. Kind of experiment: Viability assay in SW620 Yap KO (Yap independent) cells, CyQuant. The format is cell-based. The note with it: Homo sapiens, SW-620, 96 h. The protocol:
(§1) Viability Assay in NCI-H226 (Yap-Dependent) and SW620 Yap KO (Yap Independent) Cells
(§2) The ability of YAP-TEAD inhibitors to inhibit tumor cell growth was evaluated using two different cell lines: NCI-H226, which is a YAP dependent cell line, and SW620 cells, where YAP and TAZ were knocked out using CRISPR to generate a YAP independent cell line.
(§3) For the assay, cells were treated in duplicates with the test compounds in a 10-point dose, 1:3 dilution steps, with the top concentration starting at 30 μM (final concentration in assay). After a 96 hour incubation at 37° C., 95% rH, and 5% CO2, a cell-permeant DNA-binding dye that stains only healthy cells (CyQUANT®, Promega) was added to the cells, allowing the quantification of cell viability.
(§4) Cell Media: The NCI-H226 cells were cultured in the following media: RPMI 1640, +10% FBS, +1× GlutaMAX, +10 mM HEPES, +0.5% Pen/Strep. The SW620-KO cells were cultured in the following media: DMEM/F-12, +10% FBS, +1× GlutaMAX, +10 mM HEPES, +0.5% Pen/Strep.
(§5) Reagents: The reagents used are listed below:
(§6) Cell culture: The cells were examined using an inverted microscope to check for health, cell density, etc. To dissociate adherent cells, the monolayer of cells was washed once with pre-warmed PBS. After removing the PBS, 3 ml pre-warmed Accutase was added to a F75 flask, dispersed evenly and the flask was allowed to sit in incubator for ˜4-5 minutes.
(§7) When a single cell suspension was obtained, 7 ml of prewarmed growth media was added and resuspended with the cells. The cell suspension was transferred to a sterile 15 ml conical centrifuge tube, and spun for 5 min at 300×g, RT. The supernatant was discarded and the pellet was resuspended in 10 ml of pre-warmed growth media.
(§8) The total cell count was determined, and 20 μl of the desired cell number was added to each well of a 384 well plate using a Multidrop Combi. The plates were then incubated for 24 hours at 37° C., 95% rH, and 5% CO2.
(§9) Compound treatment: 24 hours after seeding, the cells were treated with compounds.
(§10) A 1:333 dilution of compounds, diluted in DMSO, was made to get a final concentration of 0.3% DMSO per well. To transfer the compounds to the assay plate, […] was shot from Labcyte low dead volume plates to the cell plates containing 20 μl media/well with the ECHO 555 liquid handling system.
(§11) After treatment, the cells were fed with 20 μl fresh pre-warmed assay media using a Multidrop combi.
(§12) The assay plates were then incubated for 96 h at 37° C., 95% rH, and 5% CO2.
(§13) 96 h after treatment 30 μl of CyQuant® reagent was added to the assay plates using a Multidrop combi in the dark. The plates were then incubated for 1 hour at 37° C., 95% rH and 5% CO2. Thereafter, the assay plates were removed from the incubator and allowed to equilibrate to RT for 30 min in the dark without lid. Finally, they were measured using an EnVision microplate reader with a FITC bottom read program.

For the next experiment, the system named is NCI-H226 cells. Description: Viability assay in NCI-H226 (Yap-dependent) cells, CyQuant. The experiment is classed as cell-based, human. The note with it: Homo sapiens, NCI-H226, 96 h. The procedure:
as §1, §2, §3, §4, §5, §6, §7, §8, §9, §10, §11, §12, §13

Another experiment deals with YAP-TEAD interaction. Description: SK-HEP-1 reporter assay (8xTEAD responsive elements driving NanoLuc luciferase). The experiment is classed as cell-based. The essentials: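 SK-HEP-1 cells stably carrying 8×TEAD-driven NanoLuc treated in duplicate, 10-point dose from 30 μM final, 0.3% DMSO, 24 h at 37° C. Luminescence after NanoGlo lysis/substrate addition; IC50 calculated from dose response.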
(In general: A reporter such as luciferase makes a cellular process visible.)

Setting [1] is: n.d. = value not detectable below threshold given in parentheses.
The mark [2] stands for this setting: SK-HEP-1 reporter assay, class symbols.
The mark [3] stands for this setting: Homo sapiens, SK-HEP1, SK-HEP-1 reporter assay, n.d. = value not detectable below threshold given in parentheses.
Setting [4] is: Homo sapiens, SK-HEP1, SK-HEP-1 reporter assay, class symbols.
Where [5] appears, read: n.d. = value not detectable below threshold given in parentheses, ND = not determinable within the entire range.

For 20 molecules, IC50 results are on record in patent publication US20240270748A1 (Merck Patent GmbH, priority 2021, published 2024).

Molecules are shown by their SMILES.

As usually defined, the IC50 is the point on the concentration scale where inhibition reaches its midpoint. For `COCCC(CO)NC(=O)c1ccc2c(c1)c1cn(C)nc1n2-c1ccc(C(F)(F)F)cc1` (single isomer, unassigned) [Example C245], the values for the IC50 in the experiment on SW620 Yap KO cells (setting [1]), in the experiment on NCI-H226 cells (class symbols) and in the experiment on YAP-TEAD interaction (setting [2]) were more than 30000 nM, 1 to 100 nM and 10 to 100 nM, respectively.

For `Cn1nc2c3cc(C(=O)N=[S@@](=O)(CCCO)Cc4ccncc4)ccc3n(-c3ccc(C(F)(F)F)cc3)c2n1` (single isomer, unassigned) [Example C250], the IC50 in the experiment with SW620 Yap KO cells (setting [1]) is more than 3000 nM; with NCI-H226 cells (class symbols), 1 to 100 nM; in the experiment on YAP-TEAD interaction (setting [3]) it was more than 300 nM.

With `Cn1nnc2c3cc(C(=O)N=[S@](=O)(CCO)Cc4cccnc4)ccc3n(-c3ccc(C(F)(F)F)cc3)c21` (single isomer, unassigned) [Example C251], the figures for the IC50 in the experiment on SW620 Yap KO cells (setting [1]), with NCI-H226 cells (class symbols) and in the experiment on YAP-TEAD interaction (setting [4]) were more than 3000 nM, 100 to 1000 nM and 10 to 100 nM, respectively.

For `Cn1nc2c3cc(C(=O)N=[S@](=O)(CCCO)Cc4ccncc4)ccc3n(-c3ccc(C(F)(F)F)cc3)c2n1` (single isomer, unassigned) [Example C252], the results for the IC50 with SW620 Yap KO cells (class symbols), in the experiment with NCI-H226 cells (class symbols) and with YAP-TEAD interaction (setting [3]) were 1000 to 10000 nM, 100 to 1000 nM and more than 300 nM, respectively.

As for `Cn1cc2c3cc(C(=O)N=[S@](=O)(CCO)Cc4ccncc4)ccc3n(-c3ccc(C(F)(F)F)cc3)c2n1` (single isomer, unassigned) [Example C253], the IC50 in the experiment with SW620 Yap KO cells (class symbols) was 1000 to 10000 nM; in the experiment on NCI-H226 cells (class symbols), 100 to 1000 nM; with YAP-TEAD interaction (setting [3]), more than 6500 nM.

On to `Cn1cc2c3cc(C(=O)N=[S@@](=O)(CCO)Cc4ccncc4)ccc3n(-c3ccc(C(F)(F)F)cc3)c2n1` (single isomer, unassigned) [Example C254], for which the values for the IC50 with SW620 Yap KO cells (class symbols), in the experiment with NCI-H226 cells (class symbols) and with YAP-TEAD interaction (setting [3]) were 1000 to 10000 nM, 1 to 100 nM and more than 300 nM, respectively.

In the case of `Cn1cnc2c1c1cc(C3CC(Oc4cncnc4)=NO3)ccc1n2-c1ccc(C(F)(F)F)cc1` (stereo not drawn) [Example 40, 5-[(5-{1-methyl-4-[4-(trifluoromethyl)phenyl]-1H,4H-imidazo[4,5-b]indol-7-yl}-4,5-dihydro-1,2-oxazol-3-yl)oxy]pyrimidine], the IC50 in the experiment on SW620 Yap KO cells (class symbols) was more than 30000 nM; in the experiment with NCI-H226 cells (class symbols), more than 10000 nM; with YAP-TEAD interaction (setting [2]) it was 10 to 100 nM.

For `Cn1cnc2c1c1cc(C(=O)N[C@](C)(CO)c3ccccn3)ccc1n2-c1ccc(C(F)(F)F)cc1` [Example C2, N-[(2S)-1-hydroxy-2-(pyridin-2-yl)propan-2-yl]-1-methyl-4-[4-(trifluoromethyl)phenyl]-1H,4H-imidazo [4,5-b]indole-7-carboxamide], the IC50 with SW620 Yap KO cells (setting [5]) is more than 30000 nM; in the experiment on NCI-H226 cells (class symbols), 1 to 100 nM; with YAP-TEAD interaction (setting [4]), 10 to 100 nM.

Take `Cn1nnc2c3cc(-c4noc(=O)[nH]4)ccc3n(-c3ccc(C(F)(F)F)cc3)c21` [Example C3, 3-{2-methyl-4-[4-(trifluoromethyl)phenyl]-3H,4H-[1,2,3]triazolo[4,5-b]indol-7-yl}-4,5-dihydro-1,2,4-oxadiazol-5-one]: the IC50 in the experiment on SW620 Yap KO cells (setting [5]) was more than 30000 nM; with NCI-H226 cells (class symbols), 100 to 1000 nM; in the experiment with YAP-TEAD interaction (setting [4]), 10 to 100 nM.

For the molecule `Cn1cc2c3cc(NS(C)(=O)=O)ccc3n(-c3ccc(C(F)(F)F)cc3)c2n1` [Example C6, N-{2-methyl-8-[4-(trifluoromethyl)phenyl]-2H,8H-pyrazolo[3,4-b]indol-5-yl}methanesulfonamide], the figures for the IC50 in the experiment on SW620 Yap KO cells (setting [5]), in the experiment with NCI-H226 cells (class symbols) and with YAP-TEAD interaction (setting [4]) were more than 9500 nM, 1 to 100 nM and 1 to 10 nM, respectively.

For the molecule `O=C(O)c1ccc2c(c1)c1cn(C3CCCCO3)nc1n2-c1ccc(C(F)(F)F)cc1` (stereo not drawn) [Example C10, 2-(oxan-2-yl)-8-[4-(trifluoromethyl)phenyl]-2H,8H-pyrazolo[3,4-b]indole-5-carboxylic acid], the IC50 was more than 30000 nM in the experiment on SW620 Yap KO cells (setting [5]), 100 to 1000 nM in the experiment on NCI-H226 cells (class symbols) and 10 to 100 nM with YAP-TEAD interaction (setting [4]).

On to `Cn1cnc2c1c1cc(C(=O)N[C@@](C)(CO)c3ccccn3)ccc1n2-c1ccc(C(F)(F)F)cc1` [Example C12, N-[(2R)-1-hydroxy-2-(pyridin-2-yl)propan-2-yl]-1-methyl-4-[4-(trifluoromethyl)phenyl]-1H,4H-imidazo [4,5-b]indole-7-carboxamide], for which the IC50 with SW620 Yap KO cells (setting [5]) was more than 3000 nM; in the experiment with NCI-H226 cells (class symbols) it was 1 to 100 nM; in the experiment on YAP-TEAD interaction (setting [4]), 1 to 10 nM.

With `Cc1snc2c1c1cc(C(=O)N=S(C)(=O)CCCO)ccc1n2-c1ccc(C(F)(F)F)cc1` (stereo not drawn) [Example C16, N-[(3-hydroxypropyl)(methyl) οχο-λ6-sulfanylidene]-3-methyl-8-[4-(trifluoromethyl)phenyl]-8H-[1,2]thiazolo[3,4-b]indole-5-carboxamide], the IC50 with SW620 Yap KO cells (setting [5]) was more than 3000 nM; in the experiment on NCI-H226 cells (class symbols), 1 to 100 nM; in the experiment with YAP-TEAD interaction (setting [4]), 10 to 100 nM.

`Cn1cc2c3cc(C4CC(Cl)=NO4)ccc3n(-c3ccc(C(F)(F)F)cc3)c2n1` (stereo not drawn) [Example C17, 3-chloro-5-{2-methyl-8-[4-(trifluoromethyl)phenyl]-2H,8H-pyrazolo[3,4-b]indol-5-yl}-4,5-dihydro-1,2-oxazole]: the figures for the IC50 in the experiment with SW620 Yap KO cells (setting [5]), with NCI-H226 cells (class symbols) and with YAP-TEAD interaction (setting [4]) were more than 30000 nM, 1 to 100 nM and 10 to 100 nM, respectively.

As to `Cn1nc2c3cc(C4CC(Cl)=NO4)ccc3n(-c3ccc(C(F)(F)F)cc3)c2n1` (stereo not drawn) [Example C18, 3-chloro-5-{2-methyl-4-[4-(trifluoromethyl)phenyl]-2H,4H-[1,2,3]triazolo[4,5-b]indol-7-yl}-4,5-dihydro-1,2-oxazole], the IC50 is more than 30000 nM in the experiment on SW620 Yap KO cells (setting [5]), 1 to 100 nM in the experiment on NCI-H226 cells (class symbols) and 10 to 100 nM with YAP-TEAD interaction (setting [4]).

For `CN(c1ccc2c(c1)c1cn(C)nc1n2-c1ccc(C(F)(F)F)cc1)S(C)(=O)=O` [Example C20, N-methyl-N-{2-methyl-8-[4-(trifluoromethyl)phenyl]-2H,8H-pyrazolo[3,4-b]indol-5-yl}methanesulfonamide], the IC50 in the experiment on SW620 Yap KO cells (setting [5]) was more than 30000 nM; with NCI-H226 cells (class symbols), 1 to 100 nM; with YAP-TEAD interaction (setting [4]), 10 to 100 nM.

As to `Cn1cc2c3cc(NC(=O)c4ccncc4)ccc3n(-c3ccc(C(F)(F)F)cc3)c2n1` [Example C21, N-{2-methyl-8-[4-(trifluoromethyl)-phenyl]-2H,8H-pyrazolo[3,4-b]indol-5-yl}pyridine-4-carboxamide], the IC50 with SW620 Yap KO cells (setting [5]) is more than 3000 nM; in the experiment with NCI-H226 cells (class symbols), 100 to 1000 nM; with YAP-TEAD interaction (Homo sapiens, SK-HEP1, SK-HEP-1 reporter assay, n.d. = value not detectable below threshold given in parentheses, ND = not determinable within the entire range), more than 1000 nM.

As for `Cn1nc2c3cc(C(=O)N=S(C)(=O)CCCO)ccc3n(-c3ccc(C(F)(F)F)cc3)c2n1` (stereo not drawn) [Example C25, N-[(3-hydroxypropyl)(methyl)oxo -¿6-sulfanylidene]-2-methyl-4-[4-(trifluoromethyl)phenyl]-2H,4H-[1,2,3]triazolo[4,5-b]indole-7-carboxamide], the IC50 in the experiment on SW620 Yap KO cells (setting [5]) is more than 30000 nM; with NCI-H226 cells (class symbols) it was 1 to 100 nM; in the experiment with YAP-TEAD interaction (setting [4]), 10 to 100 nM.

Turning to `Cn1cc2c3cc(C(=O)O)ccc3n(C34CC(C(F)(F)F)(C3)C4)c2n1` [Example C28, 2-methyl-8-[3-(trifluoromethyl)-bicyclo[1.1.1]pentan-1-yl]-2H,8H-pyrazolo[3,4-b]indole-5-carboxylic acid], the IC50 with SW620 Yap KO cells (setting [5]) was more than 30000 nM; in the experiment with NCI-H226 cells (setting [1]), more than 10000 nM; in the experiment on YAP-TEAD interaction (setting [4]), 10 to 100 nM.

With `Cc1snc2c1c1cc(C(=O)N=S(C)(=O)CCO)ccc1n2-c1ccc(C(F)(F)F)cc1` (stereo not drawn) [Example C30, N-[(2-hydroxyethyl)(methyl)oxo-¿6-sulfanylidene]-3-methyl-8-[4-(trifluoromethyl)phenyl]-8H-[1,2]thiazolo[3,4-b]indole-5-carboxamide], the IC50 was more than 3000 nM in the experiment with SW620 Yap KO cells (setting [5]), 1 to 100 nM with NCI-H226 cells (class symbols) and 10 to 100 nM with YAP-TEAD interaction (setting [4]).
